Assay results as given in patent US20220002314A1 (priority 2018, published 2022).
Read-outs that look alike come from different tables or passages of the source.

Columns and labels:
Human μ-opioid receptor = Human μ-opioid receptor (Homo sapiens, UniProt P35372); assay: biochemical; format: binding
[1] = target: Human α2δ-1 subunit of Cav2.2 calcium channel (Homo sapiens, UniProt P54289); assay: biochemical; format: binding
Human α2δ-1 subunit of Cav2.2 calcium channel, sequence (P54289 25-1103): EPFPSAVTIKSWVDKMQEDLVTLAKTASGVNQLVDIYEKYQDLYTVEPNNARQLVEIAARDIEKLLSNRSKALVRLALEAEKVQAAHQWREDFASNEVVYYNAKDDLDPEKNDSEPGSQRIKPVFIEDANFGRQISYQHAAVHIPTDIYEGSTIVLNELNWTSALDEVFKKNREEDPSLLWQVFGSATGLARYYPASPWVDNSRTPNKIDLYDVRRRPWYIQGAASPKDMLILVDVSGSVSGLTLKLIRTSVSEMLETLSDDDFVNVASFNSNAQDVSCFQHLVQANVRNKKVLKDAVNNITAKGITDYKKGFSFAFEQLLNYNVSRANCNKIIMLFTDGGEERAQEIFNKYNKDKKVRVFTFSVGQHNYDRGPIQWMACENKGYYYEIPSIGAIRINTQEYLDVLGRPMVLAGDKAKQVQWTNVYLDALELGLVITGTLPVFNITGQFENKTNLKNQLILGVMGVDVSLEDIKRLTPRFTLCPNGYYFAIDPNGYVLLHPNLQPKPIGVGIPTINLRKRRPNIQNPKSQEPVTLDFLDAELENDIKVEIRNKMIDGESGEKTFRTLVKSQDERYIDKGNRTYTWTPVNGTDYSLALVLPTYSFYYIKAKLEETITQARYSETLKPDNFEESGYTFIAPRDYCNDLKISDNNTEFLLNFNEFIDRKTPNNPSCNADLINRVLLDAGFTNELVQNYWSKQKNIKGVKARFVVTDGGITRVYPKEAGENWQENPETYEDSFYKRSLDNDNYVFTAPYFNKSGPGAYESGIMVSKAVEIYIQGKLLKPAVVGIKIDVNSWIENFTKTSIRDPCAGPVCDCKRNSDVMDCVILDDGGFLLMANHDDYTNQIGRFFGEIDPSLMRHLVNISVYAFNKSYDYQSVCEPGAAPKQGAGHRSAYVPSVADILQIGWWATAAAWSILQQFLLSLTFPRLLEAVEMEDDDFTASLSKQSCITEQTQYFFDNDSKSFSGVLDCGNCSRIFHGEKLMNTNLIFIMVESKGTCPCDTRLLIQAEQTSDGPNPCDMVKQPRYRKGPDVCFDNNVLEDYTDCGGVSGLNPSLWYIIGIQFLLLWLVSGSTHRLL

Human μ-opioid receptor, sequence (P35372 whole entry): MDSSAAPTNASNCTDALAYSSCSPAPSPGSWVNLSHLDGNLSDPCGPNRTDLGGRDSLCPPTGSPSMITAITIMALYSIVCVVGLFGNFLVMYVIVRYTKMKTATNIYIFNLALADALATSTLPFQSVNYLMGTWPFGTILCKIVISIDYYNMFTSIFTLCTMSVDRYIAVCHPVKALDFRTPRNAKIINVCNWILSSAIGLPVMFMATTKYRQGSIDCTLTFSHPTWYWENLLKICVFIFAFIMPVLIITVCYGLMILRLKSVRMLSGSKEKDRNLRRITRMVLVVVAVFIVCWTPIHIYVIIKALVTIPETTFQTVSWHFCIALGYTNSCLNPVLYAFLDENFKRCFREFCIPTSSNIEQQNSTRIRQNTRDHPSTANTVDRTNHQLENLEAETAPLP

| Ki ([1]; read-out: α2δ-1 binding) | Structure (SMILES) | Ki (Human μ-opioid receptor) | Ki [1] | Ki (Human μ-opioid receptor; read-out: μ-binding) |
| --- | --- | --- | --- | --- |
| – | CCC[C@H](c1nc2cc(F)c(Cl)cc2c(=O)n1CC)N1CCN[C@@H](C)C1 [Example 53, 6-Chloro-3-ethyl-7-fluoro-2-((R)-1-((S)-3-methylpiperazin-1-yl)butyl)quinazolin-4(3H)-one] | 100 to 500 nM | < 500 nM | – |
| – | CCC[C@@H](c1nc2cc(O[C@@H](CCNC)c3ccccc3)ccc2c(=O)n1C)N1C[C@@H](C)N[C@@H](C)C1 [Example 166, 2-((S)-1-((3S,5R)-3,5-dimethylpiperazin-1-yl)butyl)-3-methyl-7-((S)-3-(methylamino)-1-phenylpropoxy)quinazolin-4(3H)-one] | > 500 nM | < 500 nM | – |
| – | CCC[C@H](c1nc2ccc(Br)cc2c(=O)n1CC)N1CCN[C@H](CF)C1 [Example 55, 6-Bromo-3-ethyl-2-((R)-1-((S)-3-(fluoromethyl)piperazin-1-yl)butyl)quinazolin-4(3H)-one] | > 500 nM | < 500 nM | – |
| – | CCCC(c1nc2ccc(C#N)cc2c(=O)n1CC)N1C[C@@H](C)N[C@@H](C)C1 (stereo partly drawn) [Example 177, 2-(1-((3S,5R)-3,5-dimethylpiperazin-1-yl)butyl)-3-ethyl-4-oxo-3,4-dihydroquinazoline-6-carbonitrile] | > 500 nM | < 500 nM | – |
| – | CCCC(c1nc2ccc(CCN(C)Cc3ccccc3)cc2c(=O)n1CC)N1C[C@@H](C)N[C@@H](C)C1 (stereo partly drawn) [Example 174, 6-(2-(Benzyl(methyl)amino)ethyl)-2-(1-((3S,5R)-3,5-dimethylpiperazin-1-yl)butyl)-3-ethylquinazolin-4(3H)-one] | > 500 nM | < 500 nM | – |
| – | CCCC(c1nc2cc(F)c(Br)cc2c(=O)n1CC)N1C[C@@H](C)N[C@@H](C)C1 (stereo partly drawn) [Example 18, 6-bromo-2-(1-((3S,5R)-3,5-dimethylpiperazin-1-yl)butyl)-3-ethyl-7-fluoroquinazolin-4(3H)-one] | > 500 nM | < 500 nM | – |
| – | CCCC(c1nc2cc(F)c(F)cc2c(=O)n1CC)N1CCNCC1 (stereo not shown) [Example 86, 3-ethyl-6,7-difluoro-2-(1-(piperazin-1-yl)butyl)quinazolin-4(3H)-one] | > 500 nM | < 500 nM | – |
| – | CCCC(c1nc2ccc(Br)cc2c(=O)n1CC)N1C[C@@H](C)N[C@@H](C)C1 (stereo partly drawn) [Example 1, 6-Bromo-2-(1-((3S,5R)-3,5-dimethylpiperazin-1-yl)butyl)-3-ethylquinazolin-4(3H)-one] | > 500 nM | < 500 nM | – |
| – | CCC[C@@H](c1nc2cc(O[C@@H](CNC)c3ccccc3)ccc2c(=O)n1C)N1C[C@@H](C)N[C@@H](C)C1 [Example 171, 2-((S)-1-((3S,5R)-3,5-dimethylpiperazin-1-yl)butyl)-3-methyl-7-((R)-2-(methylamino)-1-phenylethoxy)quinazolin-4(3H)-one] | > 500 nM | 500 to 5000 nM | – |
| – | CCCC(c1nc2ccc(C)cc2c(=O)n1CCOC)N1C[C@@H](C)N[C@@H](C)C1 (stereo partly drawn) [Example 119, 2-(1-((3S,5R)-3,5-dimethylpiperazin-1-yl)butyl)-3-(2-methoxyethyl)-6-methylquinazolin-4(3H)-one] | > 500 nM | < 500 nM | – |
| – | CCC[C@H](c1nc2cc(Cl)c(Cl)cc2c(=O)n1C)N1CCN[C@@H](C)C1 [Example 206, 6,7-dichloro-3-methyl-2-((R)-1-((S)-3-methylpiperazin-1-yl)butyl)quinazolin-4(3H)-one] | 100 to 500 nM | < 500 nM | – |
| – | CCC[C@@H](c1nc2ccc(Cl)cc2c(=O)n1CC)N1CCN[C@H](CF)C1 [Example 232, 6-chloro-3-ethyl-2-((S)-1-((S)-3-(fluoromethyl)piperazin-1-yl)butyl)quinazolin-4(3H)-one] | > 500 nM | > 5000 nM | – |
| – | CCCC(c1nc2ccccc2c(=O)n1CCOC)N1C[C@@H](C)N[C@@H](C)C1 (stereo partly drawn) [Example 113, 2-(1-((3S,5R)-3,5-Dimethylpiperazin-1-yl)butyl)-3-(2-methoxyethyl)quinazolin-4(3H)-one] | > 500 nM | < 500 nM | – |
| 500 to 5000 nM | CCC[C@H](c1nc2c(F)cc(OC)c(Br)c2c(=O)n1CC)N1CCNCC1 [Example 40, (R)-5-bromo-3-ethyl-8-fluoro-6-methoxy-2-(1-(piperazin-1-yl)butyl)quinazolin-4(3H)-one] | – | – | > 500 nM |
| – | CCCCC(c1nc2ccccc2c(=O)n1CCOC)N1C[C@@H](C)N[C@@H](C)C1 (stereo partly drawn) [Example 115, 2-(1-((3S,5R)-3,5-dimethylpiperazin-1-yl)pentyl)-3-(2-methoxyethyl)quinazolin-4(3H)-one] | – | 500 to 5000 nM | > 500 nM |
| – | CCCC(c1nc2ccc(CN(C)CCC(C)C)cc2c(=O)n1CC)N1C[C@@H](C)N[C@@H](C)C1 (stereo partly drawn) [Example 185, 2-(1-((3S,5R)-3,5-dimethylpiperazin-1-yl)butyl)-3-ethyl-6-((isopentyl(methyl)amino)methyl)quinazolin-4(3H)-one] | > 500 nM | < 500 nM | – |
| – | CCC[C@@H](c1nc2ccc(Br)cc2c(=O)n1CC)N1CCN[C@@H](C)C1 [Example 99, 6-bromo-3-ethyl-2-((S)-1-((S)-3-methylpiperazin-1-yl)butyl)quinazolin-4(3H)-one] | > 500 nM | < 500 nM | – |
| – | CCC[C@H](c1nc2c(F)cc(Br)cc2c(=O)n1CC)N1CCNCC1 [Example 96, (R)-6-bromo-3-ethyl-8-fluoro-2-(1-(piperazin-1-yl)butyl)quinazolin-4(3H)-one] | 100 to 500 nM | < 500 nM | – |

| Ki ([1]; read-out: α2δ-1 binding) | Structure (SMILES) | Ki (Human μ-opioid receptor) | Ki [1] | Ki (Human μ-opioid receptor; read-out: μ-binding) |
| --- | --- | --- | --- | --- |
| – | CCCC(c1nc2c(Cl)cc(F)cc2c(=O)n1CC)N1CCNCC1 (stereo not shown) [Example 90, 8-chloro-3-ethyl-6-fluoro-2-(1-(piperazin-1-yl)butyl)quinazolin-4(3H)-one] | 100 to 500 nM | > 5000 nM | – |
| – | CCCC(c1nc2cc(F)ccc2c(=O)n1CC)N1C[C@@H](C)N[C@@H](C)C1 (stereo partly drawn) [Example 11, 2-(1-((3S,5R)-3,5-dimethylpiperazin-1-yl)butyl)-3-ethyl-7-fluoroquinazolin-4(3H)-one] | > 500 nM | < 500 nM | – |
| – | CCC[C@H](c1nc2ccc(Br)cc2c(=O)n1CC)N1CCN[C@H](CO)C1 [Example 58, 6-Bromo-3-ethyl-2-((R)-1-((S)-3-(hydroxymethyl)piperazin-1-yl)butyl)quinazolin-4(3H)-one] | > 500 nM | < 500 nM | – |
| – | CCC[C@H](c1nc2ccc(Br)cc2c(=O)n1CC)N1CCNC(C)(C)C1 [Example 224, (R)-6-bromo-2-(1-(3,3-dimethylpiperazin-1-yl)butyl)-3-ethylquinazolin-4(3H)-one] | < 100 nM | > 5000 nM | – |
| – | CCC[C@H](c1nc2cc(Cl)c(Cl)cc2c(=O)n1CC)N1CCN[C@@H](C)C1 [Example 49, 6,7-Dichloro-3-ethyl-2-((R)-1-((S)-3-methylpiperazin-1-yl)butyl)quinazolin-4(3H)-one] | 100 to 500 nM | < 500 nM | – |
| – | CCCC(c1nc2cccnc2c(=O)n1CC)N1CCNCC1 (stereo not shown) [Example 92, 3-ethyl-2-(1-(piperazin-1-yl)butyl)pyrido[3,2-d]pyrimidin-4(3H)-one] | > 500 nM | < 500 nM | – |
| – | CCC[C@@H](c1nc2cc(O[C@H](CNC)c3ccccc3)ccc2c(=O)n1C)N1C[C@@H](C)N[C@@H](C)C1 [Example 168, 2-((S)-1-((3S,5R)-3,5-dimethylpiperazin-1-yl)butyl)-3-methyl-7-((S)-2-(methylamino)-1-phenylethoxy)quinazolin-4(3H)-one] | > 500 nM | 500 to 5000 nM | – |
| – | CCC[C@H](c1nc2ncc(Cl)cc2c(=O)n1CC)N1CCN[C@@H](C)C1 [Example 76, 6-Chloro-3-ethyl-2-((R)-1-((S)-3-methylpiperazin-1-yl)butyl)pyrido[2,3-d]pyrimidin-4(3H)-one] | 100 to 500 nM | < 500 nM | – |
| – | CCC[C@H](c1nc2cc(O[C@H](CCNC)c3ccccc3)ccc2c(=O)n1C)N1C[C@@H](C)N[C@@H](C)C1 [Example 165, 2-((R)-1-((3S,5R)-3,5-dimethylpiperazin-1-yl)butyl)-3-methyl-7-((R)-3-(methylamino)-1-phenylpropoxy)quinazolin-4(3H)-one] | > 500 nM | 500 to 5000 nM | – |
| – | CCC[C@@H](c1nc2cccnc2c(=O)n1CC)N1CCN[C@@H](C)C1 [Example 71, 3-ethyl-2-((S)-1-((S)-3-methylpiperazin-1-yl)butyl)pyrido[3,2-d]pyrimidin-4(3H)-one] | > 500 nM | > 5000 nM | – |
| 500 to 5000 nM | CCCC(c1nc2cc(C(=O)O)ccc2c(=O)n1C)N1C[C@@H](C)N[C@@H](C)C1 (stereo partly drawn) [Example 178, 2-(1-((3S,5R)-3,5-Dimethylpiperazin-1-yl)butyl)-3-methyl-4-oxo-3,4-dihydroquinazoline-7-carboxylic acid] | – | – | > 500 nM |
| – | CCCC(c1nc2ccccc2c(=O)n1CCOC)N1CCNCC1 (stereo not shown) [Example 117, 3-(2-methoxyethyl)-2-(1-(piperazin-1-yl)butyl)quinazolin-4(3H)-one] | – | 500 to 5000 nM | > 500 nM |
| – | CCC[C@H](c1nc2c(F)cc(F)c(F)c2c(=O)n1CC)N1CCN[C@@H](C)C1 [Example 226, 3-ethyl-5,6,8-trifluoro-2-((R)-1-((S)-3-methylpiperazin-1-yl)butyl)quinazolin-4(3H)-one] | 100 to 500 nM | 500 to 5000 nM | – |
| – | CCC[C@@H](c1nc2ccc(Br)cc2c(=O)n1CC)N1CCN[C@H](CO)C1 [Example 59, 6-bromo-3-ethyl-2-((S)-1-((S)-3-(hydroxymethyl)piperazin-1-yl)butyl)quinazolin-4(3H)-one] | > 500 nM | > 5000 nM | – |
| – | CCC[C@H](c1nc2cnc(C(F)(F)F)cc2c(=O)n1CC)N1CCN[C@@H](C)C1 [Example 234, 3-ethyl-2-((R)-1-((S)-3-methylpiperazin-1-yl)butyl)-6-(trifluoromethyl)pyrido[3,4-d]pyrimidin-4(3H)-one] | > 500 nM | < 500 nM | – |
| – | CCC[C@H](c1nc2ccc(Br)cc2c(=O)n1CC)[C@@H]1CCNCC1(F)F [Example 194, 6-Bromo-2-((S)-1-((S)-3,3-difluoropiperidin-4-yl)butyl)-3-ethylquinazolin-4(3H)-one] | > 500 nM | > 5000 nM | – |
| – | CCC[C@H](c1nc2c(F)cc(F)cc2c(=O)n1C)N1CCN[C@@H](C)C1 [Example 225, 6,8-difluoro-3-methyl-2-((R)-1-((S)-3-methylpiperazin-1-yl)butyl)quinazolin-4(3H)-one] | 100 to 500 nM | 500 to 5000 nM | – |
